This note sets out measurements from patent US11312705B2, “Heteroaryl[4,3-C]pyrimidine-5-amine derivative, preparation method therefor, and medical uses thereof” (Jiangsu Hengrui Medicine Co., Ltd., priority 2017, dated 2022).

By IC50 is commonly meant the point on the concentration scale where inhibition reaches its midpoint. Low values mean higher potency, high ones lower potency.

Structures are written as SMILES.

What all share (type): cell-based
Experiment [1] addresses adenosine A2a receptor (A2aR) (Homo sapiens (Human), UniProt P29274). Nature of the experiment: Inhibition of adenosine A2a receptor cAMP signaling pathway (HTRF cAMP, CHO-K1/A2aR cells). From the text: (§1) Test Example 1. Determination of the inhibition activity of the compounds of the present invention on the adenosine A2a receptor (A2aR) cAMP signaling pathway, the adenosine A2b receptor (A2bR) cAMP signaling pathway, the adenosine A1 receptor (A1R) cAMP signaling pathway and the adenosine A3 receptor (A3R) cAMP signaling pathway.
(§2) The inhibition activity of the compounds of the present invention on the adenosine A2a receptor cAMP signaling pathway, the adenosine A2b receptor cAMP signaling pathway, the adenosine A1 receptor cAMP signaling pathway and the adenosine A3 receptor cAMP signaling pathway was determined by the following method. The experimental method is briefly described as follows:
2.1 Adenosine A2a Receptor
CHO-K1/A2aR cells were cultured in DMEM/F12 medium containing 10% fetal bovine serum and 800 μg/ml bleomycin. The cells were digested with the cell separation buffer during the experiment. The cells were resuspended in the balanced salt buffer containing 20 mM HEPES and 0.1% bovine serum albumin and counted, and the cell density was adjusted to 10^6 cells/ml. In the 384-well plate, each well was added with 5 μl of cell suspension, and 2.5 μl of test compound (4× concentration) formulated with the balanced salt buffer containing 20 mM HEPES, 0.1% bovine serum albumin, 54 μM rolipram and 2.7 U/ml adenosine deaminase, and the plate was incubated at room temperature for 30 minutes. Each well was then added with 2.5 μl of […] (4× concentration) formulated with the balanced salt buffer containing 20 mM HEPES, 0.1% bovine serum albumin, 54 μM rolipram and 2.7 U/ml adenosine deaminase, and the plate was incubated at room temperature for 30 minutes. The final concentrations of the compounds were: 10000, 2000, 400, 80, 16, 3.2, 0.64, 0.128, 0.0256, 0.00512, and 0.001024 nM. The final concentration of […] was 20 nM. Intracellular cAMP concentration was detected with the cAMP dynamic 2 kit. cAMP-d2 and Anti-cAMP-Eu-Cryptate were diluted respectively with the cAMP lysis buffer at a ratio of 1:4. Each well was added with 5 μl of diluted cAMP-d2, followed by addition of 5 μl of diluted Anti-cAMP-Eu-Cryptate, and the plate was incubated at room temperature in the dark for 1 hour. The HTRF signal values were read by the PHERAstar multi-function microplate reader.
On the technique in general: Time-resolved FRET reads energy transfer from a long-lived donor to a nearby acceptor.

Experiment [2] deals with adenosine A1 receptor (A1R) (Homo sapiens (Human), UniProt P30542). Nature of the experiment: Inhibition of adenosine A1 receptor cAMP signaling pathway (HTRF cAMP, CHO-K1/A1R cells). Conditions: Table 2; for IC50: CHO-K1/A1R cells, forskolin 10 μM, CPA 10 nM, cAMP HTRF; for IC50 ratio (A1R/A2aR): selectivity A1R over A2aR.
Description: as §1, §2
2.2 Adenosine A1 receptor
(§3) CHO-K1/A1R cells were cultured in DMEM/F12 medium containing 10% fetal bovine serum and 1 mg/ml G418. The cells were digested with the cell separation buffer during the experiment. The cells were then resuspended in the balanced salt buffer containing 20 mM HEPES and 0.1% bovine serum albumin and counted, and the cell density was adjusted to 5×10^5 cells/ml. In the 384-well plate, each well was added with 12.5 μl of cell suspension, and 6.25 μl of test compound (4× concentration) formulated with the balanced salt buffer containing 20 mM HEPES, 0.1% bovine serum albumin, 54 μM rolipram and 2.7 U/ml adenosine deaminase, and the plate was incubated at room temperature for 30 minutes. Each well was then added with 6.25 μl of forskolin and N6-cyclopentyladenosine (4× concentration) formulated with the balanced salt buffer containing 20 mM HEPES, 0.1% bovine serum albumin, 54 μM rolipram and 2.7 U/ml adenosine deaminase, and the plate was incubated at room temperature for 30 minutes. The final concentrations of the compounds were: 100000, 10000, 1000, 100, 10, 1, 0.1 and 0 nM. The final concentration of forskolin was 10 μM. The final concentration of CPA was 10 nM. Intracellular cAMP concentration was detected with the cAMP dynamic 2 kit. cAMP-d2 and Anti-cAMP-Eu-Cryptate were diluted respectively with the cAMP lysis buffer at a ratio of 1:4. Each well was added with 12.5 μl of diluted cAMP-d2, followed by addition of 12.5 μl of diluted Anti-cAMP-Eu-Cryptate, and the plate was incubated at room temperature in the dark for 1 hour. The HTRF signal values were read by the PHERAstar multi-function microplate reader.

Experiment [3] concerns the target adenosine A3 receptor (A3R) (Homo sapiens (Human), UniProt P0DMS8). Nature of the experiment: Inhibition of adenosine A3 receptor cAMP signaling pathway (HTRF cAMP, CHO-K1/A3R cells). Conditions: Table 2; for IC50: CHO-K1/A3R cells, forskolin 10 μM, 2Cl-IB-MECA 5 nM, cAMP HTRF.
Description: as §1, §2
2.3 Adenosine A3 receptor
as §3, with “CHO-K1/A3R cells were” for “CHO-K1/A1R cells were”, “serum and 10 μg/ml puromycin. The cells” for “serum and 1 mg/ml G418. The cells”, “cells were resuspended in” for “cells were then resuspended in”, “forskolin and 2Cl-IB-MECA (4× concentration)” for “forskolin and N6-cyclopentyladenosine (4× concentration)”, “concentration of 2Cl-IB-MECA was 5” for “concentration of CPA was 10”, “2Cl-IB-MECA was 5 nM. Intracellular” for “CPA was 10 nM. Intracellular”

Experiment [4] concerns the target adenosine A2b receptor (A2bR) (Homo sapiens (Human), UniProt P29275). The experiment is described as follows: Inhibition of adenosine A2b receptor cAMP signaling pathway (HTRF cAMP, CHO-K1/A2bR cells). Conditions: Table 3; for IC50: CHO-K1/A2bR cells, ethyl carbazole 1 μM, cAMP HTRF; for IC50 ratio (A2bR/A2aR): selectivity A2bR over A2aR.
Description: as §1, §2
2.4 Adenosine A2b receptor (A2bR)
CHO-K1/A2bR cells were cultured in DMEM/F12 medium containing 10% fetal bovine serum and 1 mg/ml G418. The cells were digested with the cell separation buffer during the experiment. The cells were resuspended in the balanced salt buffer containing 20 mM HEPES and 0.1% bovine serum albumin and counted, and the cell density was adjusted to 10^6 cells/ml. In the 384-well plate, each well was added with 5 μl of cell suspension, and 2.5 μl of test compound (4× concentration) formulated with the balanced salt buffer containing 20 mM HEPES, 0.1% bovine serum albumin, 54 μM rolipram and 2.7 U/ml adenosine deaminase, and the plate was incubated at room temperature for 30 minutes. Each well was then added with 2.5 μl of […] (4× concentration) (Torcis, 1691/10) formulated with the balanced salt buffer containing 20 mM HEPES, 0.1% bovine serum albumin, 54 μM rolipram and 2.7 U/ml adenosine deaminase, and the plate was incubated at room temperature for 30 minutes. The final concentrations of the compounds were: 100000, 10000, 1000, 100, 10, 1, 0.1 and 0 nM. The final concentration of […] was 1 μM. Intracellular cAMP concentration was detected with the cAMP dynamic 2 kit. cAMP-d2 and Anti-cAMP-Eu-Cryptate were diluted respectively with the cAMP lysis buffer at a ratio of 1:4. Each well was added with 5 μl of diluted cAMP-d2, followed by addition of 5 μl of diluted Anti-cAMP-Eu-Cryptate, and the plate was incubated at room temperature in the dark for 1 hour. The HTRF signal values were read by the PHERAstar multi-function microplate reader.

adenosine A2b receptor (A2bR), sequence (P29275 whole entry): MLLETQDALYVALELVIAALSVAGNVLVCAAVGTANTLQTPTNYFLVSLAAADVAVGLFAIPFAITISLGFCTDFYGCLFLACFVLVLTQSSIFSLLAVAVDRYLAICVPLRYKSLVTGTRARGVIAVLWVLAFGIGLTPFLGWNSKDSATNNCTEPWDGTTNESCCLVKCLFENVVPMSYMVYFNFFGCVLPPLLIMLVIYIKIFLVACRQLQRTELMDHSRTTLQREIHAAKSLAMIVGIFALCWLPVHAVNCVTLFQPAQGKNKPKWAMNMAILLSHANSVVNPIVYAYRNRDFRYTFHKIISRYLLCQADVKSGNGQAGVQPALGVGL
adenosine A3 receptor (A3R), sequence (P0DMS8 whole entry): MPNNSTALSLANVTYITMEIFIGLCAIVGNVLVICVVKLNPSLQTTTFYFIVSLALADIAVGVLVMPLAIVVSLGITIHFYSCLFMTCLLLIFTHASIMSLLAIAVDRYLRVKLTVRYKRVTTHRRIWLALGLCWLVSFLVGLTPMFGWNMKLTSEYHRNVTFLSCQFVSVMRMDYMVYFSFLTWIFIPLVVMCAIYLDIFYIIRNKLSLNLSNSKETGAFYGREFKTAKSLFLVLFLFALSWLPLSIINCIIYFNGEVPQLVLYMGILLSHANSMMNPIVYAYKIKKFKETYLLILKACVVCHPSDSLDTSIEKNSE
adenosine A1 receptor (A1R), sequence (P30542 whole entry): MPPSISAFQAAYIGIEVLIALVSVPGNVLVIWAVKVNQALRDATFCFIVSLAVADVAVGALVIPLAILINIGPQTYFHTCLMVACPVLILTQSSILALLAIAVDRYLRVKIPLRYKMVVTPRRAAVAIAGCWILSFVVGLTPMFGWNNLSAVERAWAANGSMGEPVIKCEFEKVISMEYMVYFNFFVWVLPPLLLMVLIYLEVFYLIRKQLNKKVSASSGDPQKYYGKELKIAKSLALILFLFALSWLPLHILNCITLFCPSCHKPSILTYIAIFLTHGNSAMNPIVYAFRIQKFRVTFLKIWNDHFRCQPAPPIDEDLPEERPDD
adenosine A2a receptor (A2aR), sequence (P29274 whole entry): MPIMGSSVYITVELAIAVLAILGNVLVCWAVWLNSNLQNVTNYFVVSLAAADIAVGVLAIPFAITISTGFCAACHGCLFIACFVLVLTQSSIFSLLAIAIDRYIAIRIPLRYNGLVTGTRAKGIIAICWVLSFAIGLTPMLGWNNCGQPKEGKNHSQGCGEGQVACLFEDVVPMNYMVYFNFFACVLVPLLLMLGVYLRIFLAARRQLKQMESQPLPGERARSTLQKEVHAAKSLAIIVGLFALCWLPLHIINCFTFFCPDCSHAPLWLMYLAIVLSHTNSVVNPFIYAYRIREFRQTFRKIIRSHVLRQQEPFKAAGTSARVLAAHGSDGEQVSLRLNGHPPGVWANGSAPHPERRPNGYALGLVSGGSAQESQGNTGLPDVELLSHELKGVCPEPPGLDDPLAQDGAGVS

Take `Nc1nc(-c2ccccc2)c(-c2ccc3ncccc3c2)c2nncn12` [Example 3, 7-Phenyl-8-(quinolin-6-yl)-[1,2,4]triazolo[4,3-c]pyrimidin-5-amine]: the IC50 in experiment [1] (Table 1, ethyl carbazole 20 nM) was determined as 0.07 nM; in experiment [1] (Table 2, ethyl carbazole 20 nM), 0.07 nM; in experiment [2], 18 nM; in experiment [3], 2000 nM. Moreover, the “IC50 ratio (A1R/A2aR)” value in experiment [2] came to 257. The “IC50 ratio (A3R/A2aR)” value in experiment [3] is 2.9 × 10^4.
For the compound `Cc1cc(-c2c(-c3ccccc3)nc(N)n3cnnc23)cc2cccnc12` [Example 5, 8-(8-Methylquinolin-6-yl)-7-phenyl-[1,2,4]triazolo[4,3-c]pyrimidin-5-amine], the IC50 in experiment [1] (Table 1, ethyl carbazole 20 nM) worked out at 0.09 nM; in experiment [1] (Table 2, ethyl carbazole 20 nM), 0.09 nM; in experiment [2] it was 12 nM; in experiment [3] it was 1400 nM. For the same compound, the “IC50 ratio (A1R/A2aR)” value in experiment [2] was 133. Besides, in experiment [3], the “IC50 ratio (A3R/A2aR)” value was 1.5 × 10^4.
As to `Nc1nc(-c2ccccc2)c(-c2cc(F)c3ncccc3c2)c2nncn12` [Example 7, 8-(8-Fluoroquinolin-6-yl)-7-phenyl-[1,2,4]triazolo[4,3-c]pyrimidin-5-amine], the IC50 in experiment [1] (Table 1, ethyl carbazole 20 nM) worked out at 0.16 nM; in experiment [1] (Table 2, ethyl carbazole 20 nM) it was 0.16 nM; in experiment [2], 16 nM; in experiment [3], 5000 nM. The “IC50 ratio (A1R/A2aR)” value in experiment [2] is recorded as 100. The “IC50 ratio (A3R/A2aR)” value in experiment [3] is on record as 3.1 × 10^4.
Consider `Cc1cc(-c2c(-c3ccccc3)nc(N)n3cnnc23)cc(C)n1` [Example 11, 8-(2,6-Dimethylpyridin-4-yl)-7-phenyl-[1,2,4]triazolo[4,3-c]pyrimidin-5-amine], for which the IC50 is 0.15 nM in experiment [1] (Table 1, ethyl carbazole 20 nM); 0.15 nM in experiment [1] (Table 2, ethyl carbazole 20 nM); 102 nM in experiment [2]; above 10000 nM in experiment [3]. Further, the “IC50 ratio (A1R/A2aR)” value in experiment [2] is 680. For the same compound, in experiment [3], the “IC50 ratio (A3R/A2aR)” value was >6.7 × 10^4.
Turning to `Cc1cc(-c2c(-c3ccccc3F)nc(N)n3cnnc23)cc(Cl)n1` [Example 27, 8-(2-Chloro-6-methylpyridin-4-yl)-7-(2-fluorophenyl)-[1,2,4]triazolo[4,3-c]pyrimidin-5-amine], the IC50 is 0.5 nM in experiment [1] (Table 1, ethyl carbazole 20 nM); 0.5 nM in experiment [1] (Table 2, ethyl carbazole 20 nM); 71 nM in experiment [2]; above 10000 nM in experiment [3]. Moreover, the “IC50 ratio (A1R/A2aR)” value in experiment [2] is listed as 142. Moreover, the “IC50 ratio (A3R/A2aR)” value in experiment [3] was >2 × 10^4.
Turning to `Cc1cc(-c2c(-c3cccc(F)c3)nc(N)n3cnnc23)cc(C(F)(F)F)n1` [Example 29, 7-(3-Fluorophenyl)-8-(2-methyl-6-(trifluoromethyl)pyridin-4-yl)-[1,2,4]triazolo[4,3-c]pyrimidin-5-amine], the IC50 in experiment [1] (Table 1, ethyl carbazole 20 nM) is 0.55 nM; in experiment [1] (Table 3, ethyl carbazole 20 nM), 0.55 nM; in experiment [4], 86.3 nM. For the same compound, the “IC50 ratio (A2bR/A2aR)” value in experiment [4] came to 157.
In the case of `Cc1cc(-c2c(-c3ccccc3)nc(N)n3cnnc23)cc(C2CC2)n1` [Example 30, 8-(2-Cyclopropyl-6-methylpyridin-4-yl)-7-phenyl-[1,2,4]triazolo[4,3-c]pyrimidin-5-amine], the 50% inhibitory concentration (IC50) turned out to be 0.77 nM in experiment [1] (Table 1, ethyl carbazole 20 nM); 0.77 nM in experiment [1] (Table 3, ethyl carbazole 20 nM); 70.9 nM in experiment [4]. Also, the “IC50 ratio (A2bR/A2aR)” value in experiment [4] came out at 92.
For `Cc1cc(-c2c(-c3ccccc3F)nc(N)n3cnnc23)cc(C(F)(F)F)n1` [Example 33, 7-(2-Fluorophenyl)-8-(2-methyl-6-(trifluoromethyl)pyridin-4-yl)-[1,2,4]triazolo[4,3-c]pyrimidin-5-amine], the concentration for half-maximal inhibition (IC50) amounted to 1.77 nM in experiment [1] (Table 1, ethyl carbazole 20 nM); 1.77 nM in experiment [1] (Table 3, ethyl carbazole 20 nM); 134 nM in experiment [4]. Also, the “IC50 ratio (A2bR/A2aR)” value in experiment [4] was 76.
For `Cc1cc(-c2c(-c3ccc(F)cc3F)nc(N)n3cnnc23)cc(Cl)n1` [Example 34, 8-(2-Chloro-6-methylpyridin-4-yl)-7-(2,4-difluorophenyl)-[1,2,4]triazolo[4,3-c]pyrimidin-5-amine], the concentration for half-maximal inhibition (IC50) stood at 2.04 nM in experiment [1] (Table 1, ethyl carbazole 20 nM); 2.04 nM in experiment [1] (Table 3, ethyl carbazole 20 nM); 170 nM in experiment [4]. Besides, the “IC50 ratio (A2bR/A2aR)” value in experiment [4] is reported as 83.
As to `Cc1cc(-c2c(-c3ccc(Cl)cc3F)nc(N)n3cnnc23)cc(Cl)n1` [Example 50, 7-(4-Chloro-2-fluorophenyl)-8-(2-chloro-6-methylpyridin-4-yl)-[1,2,4]triazolo[4,3-c]pyrimidin-5-amine], the IC50 in experiment [1] (Table 1, ethyl carbazole 20 nM) is 3.55 nM; in experiment [1] (Table 3, ethyl carbazole 20 nM), 3.55 nM; in experiment [4], 255 nM. In experiment [4], the “IC50 ratio (A2bR/A2aR)” value was 72.
